Data taken from patent US9884849B2, “Fluorinated benzofuranyl-pyrimidine derivatives containing a sulfoximine group” (Bayer Pharma Aktiengesellschaft, priority 2014, dated 2018).
Where two headings read alike, the source gives them in different places.

Legend:
[1] = molecular target: T1, CDK2/CycE (Homo sapiens, UniProt P24941); experiment: CDK2/CycE high ATP kinase assay (Method 2b, TR-FRET); format: biochemical; conditions: 2 mM ATP
T1 construct: GST; purchased ProQinase GmbH (Freiburg, Germany); host or cells: insect cells (Sf9)
Experimental: 2b. CDK2/CycE High ATP Kinase Assay:
CDK2/CycE-Inhibitory Activity of Compounds of the Present Invention at 2 mM Adenosine-Tri-Phosphate (ATP) was Quantified Employing the CDK2/CycE TR-FRET (TR-FRET=Time Resolved Fluorescence Energy Transfer) Assay as Described in the Following Paragraphs.
Recombinant fusion proteins of GST and human CDK2 and of GST and human CycE, expressed in insect cells (Sf9) and purified by Glutathion-Sepharose affinity chromatography, were purchase from ProQinase GmbH (Freiburg, Germany). As substrate for the kinase reaction biotinylated peptide biotin-Ttds-YISPLKSPYKISEG (C-terminus in amid form) was used which can be purchased e.g. form the company JERINI peptide technologies (Berlin, Germany).
For the assay 50 nl of a 100 fold concentrated solution of the test compound in DMSO was pipetted into a black low volume 384 well microtiter plate (Greiner Bio-One, Frickenhausen, Germany), 2 yl of a solution of CDK2/CycE in aqueous assay buffer [50 mM Tris/HCl pH 8.0, 10 mM MgCl2, 1.0 mM dithiothreitol, 0.1 mM sodium ortho-vanadate, 0.01% (v/v) Nonidet-P40 (Sigma)] were added and the mixture was incubated for 15 min at 22° C. to allow pre-binding of the test compounds to the enzyme before the start of the kinase reaction. […] The concentration of CDK2/CycE was adjusted depending of the activity of the enzyme lot and was chosen appropriate to have the assay in the linear range, typical concentrations were in the range of 15 ng/ml. The reaction was stopped by the addition of 5 yl of a solution of TR-FRET detection reagents (0.2 μM streptavidine-XL665 [Cisbio Bioassays, Codolet, France] and 1 nM anti-RB(pSer807/pSer811)-antibody from BD Pharmingen [#558389] and 1.2 nM LANCE EU-W1024 labeled anti-mouse IgG antibody [Perkin-Elmer, product no. AD0077, as an alternative a Terbium-cryptate-labeled anti-mouse IgG antibody from Cisbio Bioassays can be used]) in an aqueous EDTA-solution (100 mM EDTA, 0.2% (w/v) bovine serum albumin in 100 mM HEPES/NaOH pH 7.0).
The resulting mixture was incubated 1 h at 22° C. to allow the formation of complex between the phosphorylated biotinylated peptide and the detection reagents. Subsequently the amount of phosphorylated substrate was evaluated by measurement of the resonance energy transfer from the Eu-chelate to the streptavidine-XL. Therefore, the fluorescence emissions at 620 nm and 665 nm after excitation at 350 nm were measured in a TR-FRET reader, e.g. a Rubystar (BMG Labtechnologies, Offenburg, Germany) or a Viewlux (Perkin-Elmer). The ratio of the emissions at 665 nm and at […] was taken as the measure for the amount of phosphorylated substrate. The data were normalised (enzyme reaction without inhibitor=0% inhibition, all other assay components but no enzyme=100% inhibition).

[2] = system: MOLM-13 cells; experiment: Proliferation assay MOLM-13 (Method 3); format: cell-based, human; conditions: MOLM-13, 72-hour exposure, Cell Titre-Glo, read-out: Inhibition of MOLM-13 cell proliferation IC50
Experimental: Non-adherent MOLM-13 human acute myeloid leukemia cells (DSMZ ACC 554) were seeded at a density of 5,000 cells/well in a 96-well multititer plate in 100 μL of growth medium supplemented 10% fetal calf serum. After 24 hours, cell viability of one plate (zero-point plate) was determined with the Cell Titre-Glo Luminescent Cell Viability Assay (Promega), while 50 μL of test compound containing medium was added to the wells of the other plates (final concentrations in the range of 0.001-10 μM and DMSO controls; the final concentration of the solvent dimethyl sulfoxide was 0.5%). Cell viability was assessed after 72-hour exposure with the Cell Titre-Glo Luminescent Cell Viability Assay (Promega). IC50 values (inhibitory concentration at 50% of maximal effect) were determined by means of a 4 parameter fit on measurement data which were normalized to vehicle (DMSO) treated cells (=100%) and measurement readings taken immediately before compound exposure (=0%).

| SMILES | IC50 [1] [µM] | IC50 ([2]; Homo sapiens, MOLM-13, 72 h) [µM] | IC50 [2] [µM] |
| --- | --- | --- | --- |
| CS(=O)(Cc1cc(F)cc(Nc2ncc(F)c(-c3ccc(F)c4ccoc34)n2)c1)=NC#N (racemic) [Example 7, (rac)-[(3-Fluoro-5-{[5-fluoro-4-(4-fluoro-1-benzofuran-7-yl)pyrimidin-2-yl]amino}benzyl)(methyl)-oxido-λ^6-sulfanylidene]cyanamide] | 0.652 | 0.017 |  |
| CS(=N)(=O)Cc1cc(F)cc(Nc2ncc(F)c(-c3ccc(F)c4ccoc34)n2)c1 (racemic) [Example 10, (rac)-5-Fluoro-4-(4-fluoro-1-benzofuran-7-yl)-N-{3-fluoro-5-[(S-methylsulfonimidoyl)-methyl]-phenyl}-pyrimidin-2-amine] | 1.8 | 0.037 |  |
| Cc1cc(CS(C)(=O)=NC#N)cc(Nc2ncc(F)c(-c3ccc(F)c4ccoc34)n2)c1 (racemic) [Example 13, (rac)-[(3-{[5-Fluoro-4-(4-fluoro-1-benzofuran-7-yl)pyrimidin-2-yl]amino}-5-methylbenzyl)-(methyl)oxido-λ^6-sulfanylidene]cyanamide] | 1.2 |  |  |
| CS(=O)(Cc1cc(Nc2ncc(F)c(-c3ccc(F)c4ccoc34)n2)cc(S(F)(F)(F)(F)F)c1)=NC#N (racemic) [Example 17, (rac)-{[3-{[5-fluoro-4-(4-fluoro-1-benzofuran-7-yl)pyrimidin-2-yl]amino}-5-(pentafluoro-λ^6-sulfanyl)benzyl](methyl)oxido-λ^6-sulfanylidene}cyanamide] | 1.46 | 0.057 |  |
| CS(=N)(=O)Cc1cc(Nc2ncc(F)c(-c3ccc(F)c4ccoc34)n2)cc(S(F)(F)(F)(F)F)c1 (racemic) [Example 18, (rac)-5-Fluoro-4-(4-fluoro-1-benzofuran-7-yl)-N-{3-[(S-methylsulfonimidoyl)methyl]-5-(pentafluoro-λ^6-sulfanyl)phenyl}pyrimidin-2-amine] | 1.54 | 0.03 |  |
| CS(=N)(=O)Cc1cccc(Nc2ncc(F)c(-c3ccc(F)c4ccoc34)n2)c1 (single isomer, unassigned) [Example 5, 5-Fluoro-4-(4-fluoro-1-benzofuran-7-yl)-N-{3-[(S-methylsulfonimidoyl)-methyl]-phenyl}-pyrimidin-2-amine] | 0.802 | 0.115 |  |
| CS(=N)(=O)Cc1cccc(Nc2ncc(F)c(-c3ccc(F)c4ccoc34)n2)c1 (single isomer, unassigned) [Example 6, 5-Fluoro-4-(4-fluoro-1-benzofuran-7-yl)-N-{3-[(S-methylsulfonimidoyl)-methyl]-phenyl}-pyrimidin-2-amine] | 1 |  | 0.117 |
| CS(=O)(Cc1cc(F)cc(Nc2ncc(F)c(-c3ccc(F)c4ccoc34)n2)c1)=NC#N (single isomer, unassigned) [Example 8, [(3-Fluoro-5-{[5-fluoro-4-(4-fluoro-1-benzofuran-7-yl)pyrimidin-2-yl]amino}benzyl)(methyl)-oxido-λ^6-sulfanylidene]cyanamide] | 0.812 | 0.034 |  |
| CS(=O)(Cc1cc(F)cc(Nc2ncc(F)c(-c3ccc(F)c4ccoc34)n2)c1)=NC#N (single isomer, unassigned) [Example 9, [(3-Fluoro-5-{[5-fluoro-4-(4-fluoro-1-benzofuran-7-yl)pyrimidin-2-yl]amino}benzyl)(methyl)-oxido-λ^6-sulfanylidene]cyanamide] | 2.23 |  | 0.024 |
| CS(=N)(=O)Cc1cc(F)cc(Nc2ncc(F)c(-c3ccc(F)c4ccoc34)n2)c1 (single isomer, unassigned) [Example 11, 5-Fluoro-4-(4-fluoro-1-benzofuran-7-yl)-N-{3-fluoro-5-[(S-methylsulfonimidoyl)-methyl]-phenyl}-pyrimidin-2-amine] | 0.913 |  |  |
| CS(=N)(=O)Cc1cc(F)cc(Nc2ncc(F)c(-c3ccc(F)c4ccoc34)n2)c1 (single isomer, unassigned) [Example 12, 5-Fluoro-4-(4-fluoro-1-benzofuran-7-yl)-N-{3-fluoro-5-[(S-methylsulfonimidoyl)-methyl]-phenyl}-pyrimidin-2-amine] | 1.25 |  |  |
| Cc1cc(CS(C)(=O)=NC#N)cc(Nc2ncc(F)c(-c3ccc(F)c4ccoc34)n2)c1 (single isomer, unassigned) [Example 14, [(3-{[5-Fluoro-4-(4-fluoro-1-benzofuran-7-yl)pyrimidin-2-yl]amino}-5-methylbenzyl)-(methyl)oxido-λ^6-sulfanylidene]cyanamide] | 0.846 | 0.075 |  |
| Cc1cc(CS(C)(=O)=NC#N)cc(Nc2ncc(F)c(-c3ccc(F)c4ccoc34)n2)c1 (single isomer, unassigned) [Example 15, [(3-{[5-Fluoro-4-(4-fluoro-1-benzofuran-7-yl)pyrimidin-2-yl]amino}-5-methylbenzyl)-(methyl)oxido-λ^6-sulfanylidene]cyanamide] | 0.835 |  | 0.074 |

Molecules with a lower IC50 [1], results first:

| IC50 [1] [µM] | IC50 ([2]; Homo sapiens, MOLM-13, 72 h) [µM] | IC50 [2] [µM] | SMILES |
| --- | --- | --- | --- |
| 0.56 | 0.083 |  | CS(=O)(Cc1cccc(Nc2ncc(F)c(-c3ccc(F)c4ccoc34)n2)c1)=NC#N (racemic) [Example 1, (rac)-[(3-{[5-Fluoro-4-(4-fluoro-1-benzofuran-7-yl)pyrimidin-2-yl]amino}benzyl)(methyl)oxido-λ^6-sulfanylidene]cyanamide] |
| 0.51 | 0.108 |  | CS(=N)(=O)Cc1cccc(Nc2ncc(F)c(-c3ccc(F)c4ccoc34)n2)c1 (racemic) [Example 4, (rac)-5-Fluoro-4-(4-fluoro-1-benzofuran-7-yl)-N-{3-[(S-methylsulfonimidoyl)-methyl]phenyl}-pyrimidin-2-amine] |
| 0.491 | 0.033 |  | Cc1cc(CS(C)(=N)=O)cc(Nc2ncc(F)c(-c3ccc(F)c4ccoc34)n2)c1 (racemic) [Example 16, (rac)-5-Fluoro-4-(4-fluoro-1-benzofuran-7-yl)-N-{3-methyl-5-[(S-methylsulfonimidoyl)-methyl]phenyl}pyrimidin-2-amine] |
| 0.353 |  | 0.029 | CS(=O)(Cc1cccc(Nc2ncc(F)c(-c3ccc(F)c4ccoc34)n2)c1)=NC#N (single isomer, unassigned) [Example 2, [(3-{[5-Fluoro-4-(4-fluoro-1-benzofuran-7-yl)pyrimidin-2-yl]amino}benzyl)(methyl)oxido-λ^6-sulfanylidene]cyanamide] |
| 0.475 | 0.047 |  | CS(=O)(Cc1cccc(Nc2ncc(F)c(-c3ccc(F)c4ccoc34)n2)c1)=NC#N (single isomer, unassigned) [Example 3, [(3-{[5-Fluoro-4-(4-fluoro-1-benzofuran-7-yl)pyrimidin-2-yl]amino}benzyl)(methyl)oxido-λ^6-sulfanylidene]cyanamide] |
